Data as given in PubChem BioAssay (NCI).
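A five-concentration, 48-hour dose response in 96-well plates underlies each endpoint, interpolated linearly between surrounding concentrations. GI50 marks 50% less growth. TGI: concentration producing complete growth inhibition.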

Experiments:
Experiment in all cases: growth of human tumour cells (NCI), 48 h
UO-31 renal = system: UO-31 renal
MCF7 breast = system: MCF7 breast
HCT-15 colon = system: HCT-15 colon
SNB-19 CNS = system: SNB-19 CNS
UACC-62 melanoma = system: UACC-62 melanoma
SN12C renal = system: SN12C renal
OVCAR-5 ovarian = system: OVCAR-5 ovarian
786-0 renal = system: 786-0 renal
SR leukemia = system: SR leukemia
LOX IMVI melanoma = system: LOX IMVI melanoma

Row | Compound | GI50 (UO-31 renal) | TGI (UO-31 renal) | GI50 (MCF7 breast) | TGI (MCF7 breast) | GI50 (HCT-15 colon) | TGI (HCT-15 colon) | GI50 (SNB-19 CNS) | TGI (SNB-19 CNS) | GI50 (UACC-62 melanoma) | TGI (UACC-62 melanoma) | GI50 (SN12C renal) | TGI (SN12C renal) | GI50 (OVCAR-5 ovarian) | TGI (OVCAR-5 ovarian) | GI50 (786-0 renal) | TGI (786-0 renal) | GI50 (SR leukemia) | TGI (SR leukemia) | GI50 (LOX IMVI melanoma) | TGI (LOX IMVI melanoma)
1 | Cc1ccc(/C=C2/SC(Nc3nc(-c4nc(NC5=NC(=O)/C(=C\c6ccc(C)cc6)S5)sc4C)c(C)s3)=NC2=O)cc1 | 6.03 µM | > 50 µM | 1.01 µM | > 50 µM | 0.347 µM | > 19.6 µM | 10.1 µM | > 50 µM | 0.0759 µM | 1.71 µM | 0.957 µM | 18.3 µM | 8.05 µM | > 50 µM | 0.487 µM | 8.4 µM | 0.373 µM | > 50 µM | 0.287 µM | 12.2 µM
2 | CN1CCN(c2nc(NCCCCNc3ccnc4cc(Cl)ccc34)c3ccccc3n2)CC1 | 1.65 µM | 3.54 µM | 4.3 µM | 19.1 µM | 2.9 µM | 14 µM | 4.28 µM | 20.8 µM | 1.96 µM | 3.9 µM | 4.73 µM | 20 µM | 2.98 µM | 15.8 µM | 1.65 µM | 3.26 µM | 2.29 µM | 6.27 µM | 1.89 µM | 4.19 µM
3 | Cc1nc2cnc3cc(F)c(-c4ccc(Oc5ncccn5)cc4Cl)cc3c2n1[C@H]1CCN(C(=O)CO)C[C@@H]1F | 1.78 µM | 24.4 µM | 6.51 µM | > 58.2 µM | 3.6 µM | > 100 µM | 4.89 µM | > 100 µM | 0.0134 µM | 0.0875 µM | 1.2 µM | 36.8 µM | 0.279 µM | > 40.1 µM | 8.47 µM | > 100 µM | 13.3 µM | 54.4 µM | 0.417 µM | 11.5 µM
4 | O=C(/C=C/c1cccs1)c1ccc(Nc2nc(Nc3ccc(F)cc3)nc(Nc3ccc(F)cc3)n2)cc1 | 19.5 µM | 79.7 µM | 14 µM | 46.2 µM | 37.4 µM | > 100 µM | 34.1 µM | > 100 µM | > 100 µM | > 100 µM | > 100 µM | > 100 µM | > 100 µM | > 100 µM | 38.5 µM | > 100 µM | 14.7 µM | 60.1 µM | 32.1 µM | > 100 µM
5 | COc1ccc2c(c1)c(-c1nc(-c3c[nH]c4ncccc34)cs1)cn2CCCCN1CCOCC1 | 1.43 µM | 3.23 µM | 1.56 µM | 3.56 µM | 1.96 µM | 4.14 µM | – | – | 1.87 µM | 3.93 µM | 1.91 µM | 4.19 µM | 1.99 µM | 4.02 µM | 1.78 µM | 3.3 µM | 2.01 µM | 4.65 µM | 1.71 µM | 3.19 µM
6 | COc1cc(C(O)c2nc3ccccc3s2)cc(OC)c1OC (stereo not drawn) | 6.2 µM | > 100 µM | 41.3 µM | > 100 µM | > 100 µM | > 100 µM | > 100 µM | > 100 µM | 37.8 µM | > 100 µM | > 100 µM | > 100 µM | > 100 µM | > 100 µM | > 100 µM | > 100 µM | 9.01 µM | > 100 µM | 50.6 µM | > 100 µM
7 | Cn1ccnc1C(=O)/C=C/c1ccc(CC(=O)Nc2ccc(S(F)(F)(F)(F)F)cc2)cc1 | 2.22 µM | 4.35 µM | 0.625 µM | 5.54 µM | 0.878 µM | 11.7 µM | 2.23 µM | 4.82 µM | 2.89 µM | 5.87 µM | 2.93 µM | 7.17 µM | 2.12 µM | 5.1 µM | 0.788 µM | 3 µM | 0.53 µM | 1.86 µM | 1.19 µM | 3.34 µM
8 | O=C1c2ccc3c4c5ccc(c24)C(=O)N1CCCOCCCCOCCCNCc1ccc(cc1)CNCCCOCCCCOCCCN(C3=O)C5=O | 1.1 µM | 5.12 µM | 0.686 µM | 1.6 µM | 0.926 µM | 1.97 µM | 0.991 µM | 2.27 µM | 0.889 µM | 1.63 µM | 0.816 µM | 1.53 µM | 0.944 µM | 1.81 µM | 0.956 µM | 2.02 µM | 0.621 µM | 2.62 µM | 0.797 µM | 1.52 µM
9 | C=CC1=C[C@@H]2[C@@H]3O[C@]4(CC[C@H](O4)[C@@H](C)C[C@@H](O)C3=O)C[C@H](O)C3=NCC[C@@]32CC1 | < 0.00333 µM | < 0.00333 µM | < 0.00333 µM | < 0.00333 µM | < 0.00333 µM | < 0.00333 µM | < 0.00333 µM | < 0.00333 µM | < 0.00333 µM | 0.00412 µM | < 0.00333 µM | 0.011 µM | < 0.00333 µM | 0.00513 µM | < 0.00333 µM | 0.00341 µM | < 0.00333 µM | > 33.3 µM | < 0.00333 µM | < 0.00333 µM
10 | NC1=C(Br)C(=O)c2ncccc2C1=O | – | 1.07 µM | 0.367 µM | 1.99 µM | – | 1.65 µM | – | 2.41 µM | – | 0.713 µM | – | 2.1 µM | – | 3.49 µM | – | 2.99 µM | – | 1.84 µM | – | 0.655 µM
11 | CN(CC(=O)O)c1ccc(/C=C/c2ccnc3ccccc23)cc1 | – | 54 µM | – | 35.2 µM | – | > 100 µM | – | > 100 µM | – | 52.2 µM | – | 92.8 µM | – | 94 µM | – | > 100 µM | – | 33.7 µM | – | 45.7 µM
12 | COC1(O)C(=O)c2ccccc2OC1(OC)c1ccccc1 (stereo not drawn) | – | – | – | > 100 µM | – | > 100 µM | – | > 100 µM | – | > 100 µM | – | > 100 µM | – | > 100 µM | – | > 100 µM | – | > 100 µM | – | > 100 µM
13 | O=C(CCCCCCSc1nc(-c2ccccc2)cc(-c2ccccc2)n1)NO | 1.09 µM | 3.85 µM | 1.31 µM | 15.9 µM | 2.29 µM | 10.6 µM | 2.69 µM | 11.3 µM | 1.35 µM | 3.85 µM | 2.9 µM | 10.5 µM | 1.84 µM | 7.92 µM | 1.91 µM | 4.48 µM | 0.322 µM | 3.87 µM | 1.86 µM | 3.84 µM
